Like-named read-outs stand apart in the source and are kept apart here.
Tests used:
Assay type in all cases: biochemical
PI3K-alpha = PI3K-alpha (Homo sapiens, UniProt P42336); experiment: PI3K-alpha fluorescence polarization assay
PI3K-beta = PI3K-beta (Homo sapiens, UniProt P42338); experiment: PI3K-beta fluorescence polarization assay; settings: read-out: PI3Kβ Avg. IC50
Outline: (§1)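 Reactions used 5 ng enzyme with 2.5 μM diC8-PI(4,5)P2 and 25 μM ATP in 5 mM HEPES pH 7, 2.5 mM MgCl2, run 1 h at 25° C. After an EDTA quench (10 mM), 100 nM GST-GRP1 PH domain and 5 nM BODIPY-TMR-IP4 were added and fluorescence polarization was read.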

PI3K-gamma = PI3K-gamma (Homo sapiens, UniProt P48736); experiment: PI3K-gamma fluorescence polarization assay; settings: PI3Kγ Avg. IC50
PI3K-gamma, sequence (P48736 whole entry, species assumed): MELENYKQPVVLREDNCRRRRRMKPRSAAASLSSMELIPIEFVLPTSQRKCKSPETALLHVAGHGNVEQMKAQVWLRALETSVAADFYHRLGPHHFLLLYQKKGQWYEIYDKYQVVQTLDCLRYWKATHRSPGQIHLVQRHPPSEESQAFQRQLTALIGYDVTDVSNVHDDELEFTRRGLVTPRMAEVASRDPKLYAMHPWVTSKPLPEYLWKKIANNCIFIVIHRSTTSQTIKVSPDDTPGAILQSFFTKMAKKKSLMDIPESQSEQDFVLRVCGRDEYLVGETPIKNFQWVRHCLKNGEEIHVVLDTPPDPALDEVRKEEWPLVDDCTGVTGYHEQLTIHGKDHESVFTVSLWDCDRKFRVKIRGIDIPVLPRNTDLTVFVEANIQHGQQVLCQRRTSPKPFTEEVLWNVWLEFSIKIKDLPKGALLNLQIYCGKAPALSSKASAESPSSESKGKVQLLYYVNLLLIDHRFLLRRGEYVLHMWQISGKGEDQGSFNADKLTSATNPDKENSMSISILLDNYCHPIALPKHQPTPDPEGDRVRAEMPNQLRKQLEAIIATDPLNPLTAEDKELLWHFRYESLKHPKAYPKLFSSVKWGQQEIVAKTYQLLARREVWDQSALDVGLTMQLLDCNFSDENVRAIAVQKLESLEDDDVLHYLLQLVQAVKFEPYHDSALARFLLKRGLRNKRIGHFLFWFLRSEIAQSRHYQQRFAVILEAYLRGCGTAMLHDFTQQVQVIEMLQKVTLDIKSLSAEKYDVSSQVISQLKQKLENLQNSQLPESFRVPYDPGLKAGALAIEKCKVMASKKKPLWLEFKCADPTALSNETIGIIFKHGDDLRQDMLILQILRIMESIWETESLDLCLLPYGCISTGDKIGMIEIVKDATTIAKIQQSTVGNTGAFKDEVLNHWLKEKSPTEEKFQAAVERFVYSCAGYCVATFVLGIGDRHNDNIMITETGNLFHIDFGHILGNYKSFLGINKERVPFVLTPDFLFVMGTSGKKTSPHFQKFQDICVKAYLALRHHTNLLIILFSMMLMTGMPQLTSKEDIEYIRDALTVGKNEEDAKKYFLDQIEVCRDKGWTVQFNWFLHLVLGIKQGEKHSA
Outline: as §1

PI3K-delta = PI3K-delta (Homo sapiens, UniProt O00329); experiment: PI3K-delta fluorescence polarization assay
PI3K-delta, sequence (O00329 whole entry, species assumed): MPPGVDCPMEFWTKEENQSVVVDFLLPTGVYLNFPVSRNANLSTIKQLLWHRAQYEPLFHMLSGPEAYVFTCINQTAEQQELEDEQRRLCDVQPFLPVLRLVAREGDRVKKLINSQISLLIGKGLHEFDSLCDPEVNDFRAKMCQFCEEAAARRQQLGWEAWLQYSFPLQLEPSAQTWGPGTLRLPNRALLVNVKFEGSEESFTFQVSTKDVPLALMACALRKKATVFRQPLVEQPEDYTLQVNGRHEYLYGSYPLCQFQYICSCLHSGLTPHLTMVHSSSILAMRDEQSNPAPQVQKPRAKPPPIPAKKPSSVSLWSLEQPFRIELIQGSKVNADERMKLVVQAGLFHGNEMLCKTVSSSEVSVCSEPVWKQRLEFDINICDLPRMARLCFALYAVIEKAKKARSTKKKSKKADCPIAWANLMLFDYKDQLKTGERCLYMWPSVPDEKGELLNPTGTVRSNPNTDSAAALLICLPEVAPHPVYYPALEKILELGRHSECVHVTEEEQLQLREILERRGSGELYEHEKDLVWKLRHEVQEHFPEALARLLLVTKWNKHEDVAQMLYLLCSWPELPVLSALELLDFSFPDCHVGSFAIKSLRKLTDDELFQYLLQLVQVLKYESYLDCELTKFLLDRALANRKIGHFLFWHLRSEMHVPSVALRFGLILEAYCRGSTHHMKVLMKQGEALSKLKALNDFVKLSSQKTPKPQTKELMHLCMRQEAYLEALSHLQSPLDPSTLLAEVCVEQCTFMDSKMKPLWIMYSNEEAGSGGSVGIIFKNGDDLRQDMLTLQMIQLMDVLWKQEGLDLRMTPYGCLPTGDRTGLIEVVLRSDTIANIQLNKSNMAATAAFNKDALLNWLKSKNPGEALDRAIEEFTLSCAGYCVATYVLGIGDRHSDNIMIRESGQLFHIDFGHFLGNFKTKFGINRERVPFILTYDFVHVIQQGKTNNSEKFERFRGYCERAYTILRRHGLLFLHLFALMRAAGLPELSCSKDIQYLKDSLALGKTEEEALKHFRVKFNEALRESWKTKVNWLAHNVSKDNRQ
PI3K-delta, sequence (P27986 whole entry partner, species assumed): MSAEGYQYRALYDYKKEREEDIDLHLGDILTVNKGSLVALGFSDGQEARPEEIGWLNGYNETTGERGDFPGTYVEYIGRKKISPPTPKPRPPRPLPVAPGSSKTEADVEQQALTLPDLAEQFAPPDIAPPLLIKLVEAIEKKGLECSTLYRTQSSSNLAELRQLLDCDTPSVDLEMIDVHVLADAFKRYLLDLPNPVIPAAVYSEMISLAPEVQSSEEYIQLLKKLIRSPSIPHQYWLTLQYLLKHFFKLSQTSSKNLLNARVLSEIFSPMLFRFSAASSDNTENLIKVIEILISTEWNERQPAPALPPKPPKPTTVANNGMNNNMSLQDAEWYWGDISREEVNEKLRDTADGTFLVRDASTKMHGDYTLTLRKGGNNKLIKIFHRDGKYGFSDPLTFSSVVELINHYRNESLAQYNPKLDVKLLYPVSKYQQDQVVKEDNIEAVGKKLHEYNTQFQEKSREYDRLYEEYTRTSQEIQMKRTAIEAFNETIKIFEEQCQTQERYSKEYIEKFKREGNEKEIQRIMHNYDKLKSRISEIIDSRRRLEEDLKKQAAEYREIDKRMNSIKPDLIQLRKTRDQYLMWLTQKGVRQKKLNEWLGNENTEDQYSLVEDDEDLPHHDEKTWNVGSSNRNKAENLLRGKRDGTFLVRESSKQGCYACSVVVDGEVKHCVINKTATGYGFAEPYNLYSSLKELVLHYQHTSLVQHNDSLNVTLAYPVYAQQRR

human TOR = biological target: T1, human TOR (Homo sapiens, UniProt P42345); experiment: mTOR enzyme assay (DELFIA, His6-S6K substrate); settings: read-out: mTOR Kinase Avg. IC50
T1 construct: FLAG

PI3K-alpha, sequence (P42336 whole entry, species assumed): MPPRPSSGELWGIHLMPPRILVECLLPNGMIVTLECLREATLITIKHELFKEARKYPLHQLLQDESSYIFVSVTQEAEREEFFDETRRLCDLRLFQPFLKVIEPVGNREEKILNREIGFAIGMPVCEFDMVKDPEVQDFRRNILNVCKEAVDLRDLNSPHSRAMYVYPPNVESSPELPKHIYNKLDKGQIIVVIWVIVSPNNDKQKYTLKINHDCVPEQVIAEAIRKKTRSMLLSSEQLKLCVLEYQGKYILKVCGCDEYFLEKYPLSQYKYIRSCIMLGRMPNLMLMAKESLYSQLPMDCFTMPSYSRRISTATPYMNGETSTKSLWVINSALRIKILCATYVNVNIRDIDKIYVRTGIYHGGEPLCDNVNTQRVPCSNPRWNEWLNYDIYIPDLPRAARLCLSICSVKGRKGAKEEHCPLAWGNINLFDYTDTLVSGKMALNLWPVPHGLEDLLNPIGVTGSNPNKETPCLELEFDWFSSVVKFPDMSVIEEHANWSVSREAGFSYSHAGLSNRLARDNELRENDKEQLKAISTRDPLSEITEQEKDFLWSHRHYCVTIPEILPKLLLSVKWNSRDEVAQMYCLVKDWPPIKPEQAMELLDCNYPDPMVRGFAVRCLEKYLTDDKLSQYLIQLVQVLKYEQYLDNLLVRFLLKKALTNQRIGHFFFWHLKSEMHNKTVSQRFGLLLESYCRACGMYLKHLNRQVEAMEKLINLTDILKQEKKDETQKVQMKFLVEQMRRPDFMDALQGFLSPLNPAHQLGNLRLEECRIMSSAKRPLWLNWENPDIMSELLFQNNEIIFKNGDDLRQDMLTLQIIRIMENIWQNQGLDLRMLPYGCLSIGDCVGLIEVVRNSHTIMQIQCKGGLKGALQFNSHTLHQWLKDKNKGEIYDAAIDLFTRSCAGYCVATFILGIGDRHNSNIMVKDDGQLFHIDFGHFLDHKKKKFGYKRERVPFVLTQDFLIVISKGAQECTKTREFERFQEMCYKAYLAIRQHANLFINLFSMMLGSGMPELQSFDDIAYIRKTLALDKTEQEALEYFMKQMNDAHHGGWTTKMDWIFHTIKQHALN
PI3K-alpha, sequence (P27986 whole entry partner, species assumed): as the sequence (P27986 whole entry partner, species assumed) above
PI3K-beta, sequence (P42338 whole entry, species assumed, the tested form may be a part): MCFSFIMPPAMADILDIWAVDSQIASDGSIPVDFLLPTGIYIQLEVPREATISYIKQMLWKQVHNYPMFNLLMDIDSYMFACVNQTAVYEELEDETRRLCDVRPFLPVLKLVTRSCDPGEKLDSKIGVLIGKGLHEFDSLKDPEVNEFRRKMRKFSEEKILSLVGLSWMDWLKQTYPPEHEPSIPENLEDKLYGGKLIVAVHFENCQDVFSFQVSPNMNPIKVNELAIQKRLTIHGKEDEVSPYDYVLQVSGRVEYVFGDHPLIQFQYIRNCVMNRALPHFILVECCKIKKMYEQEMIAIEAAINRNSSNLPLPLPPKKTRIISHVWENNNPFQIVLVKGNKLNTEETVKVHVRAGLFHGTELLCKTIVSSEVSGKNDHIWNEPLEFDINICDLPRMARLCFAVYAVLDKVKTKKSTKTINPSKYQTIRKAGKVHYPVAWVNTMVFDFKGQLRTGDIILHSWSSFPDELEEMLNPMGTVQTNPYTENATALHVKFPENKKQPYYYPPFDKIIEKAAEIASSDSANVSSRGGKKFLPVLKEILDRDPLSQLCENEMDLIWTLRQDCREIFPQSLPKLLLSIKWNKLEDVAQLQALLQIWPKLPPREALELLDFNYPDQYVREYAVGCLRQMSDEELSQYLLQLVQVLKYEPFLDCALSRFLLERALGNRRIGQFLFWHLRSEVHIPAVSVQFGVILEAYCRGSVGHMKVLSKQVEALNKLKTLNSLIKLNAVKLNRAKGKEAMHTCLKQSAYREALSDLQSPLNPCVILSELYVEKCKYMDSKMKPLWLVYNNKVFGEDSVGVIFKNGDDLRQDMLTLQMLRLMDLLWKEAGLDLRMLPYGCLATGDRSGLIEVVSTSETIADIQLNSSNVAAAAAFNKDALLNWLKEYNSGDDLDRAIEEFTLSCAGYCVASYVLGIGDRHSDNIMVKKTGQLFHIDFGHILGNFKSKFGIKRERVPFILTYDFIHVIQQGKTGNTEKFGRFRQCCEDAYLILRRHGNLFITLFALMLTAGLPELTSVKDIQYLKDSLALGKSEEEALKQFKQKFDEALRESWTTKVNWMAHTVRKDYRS
PI3K-beta, sequence (P27986 whole entry partner, species assumed, the tested form may be a part): as the sequence (P27986 whole entry partner, species assumed) above

SMILES	IC50 (PI3K-alpha; read-out: PI3Kα Avg. IC50) [nM]	IC50 (PI3K-beta) [nM]	IC50 (PI3K-gamma) [nM]	IC50 (PI3K-delta; read-out: PI3Kδ Avg. IC50) [nM]	IC50 (human TOR) [nM]	IC50 (PI3K-alpha; PI3Kα Avg. IC50) [nM]	IC50 (PI3K-delta) [nM]
COc1ccc2c(c1)c(C=C1Oc3cc(O)cc(O)c3C1=O)cn2C [Example 84, 4,6-dihydroxy-2-[(5-methoxy-1-methyl-1H-indol-3-yl)methylene]-1-benzofuran-3(2H)-one]	–	547	586	–	65.2	106	110
COc1ccc2c(c1)c(C=C1Oc3cc(O)cc(O)c3C1=O)cn2CCN1CCN(CCO)CC1 [Example 111, 4,6-dihydroxy-2-[(1-{2-[4-(2-hydroxyethyl)piperazin-1-yl]ethyl}-5-methoxy-1H-indol-3-yl)methylene]-1-benzofuran-3(2H)-one]	36.3	169	976	21.5	215	–	–
COc1ccc2c(c1)c(/C=C1\Oc3cc(O)cc(O)c3C1=O)c(C(=O)N(C)C)n2CCN1CCN(C)CC1 [Example 316, 3-[(Z)-(4,6-Dihydroxy-3-oxo-1-benzofuran-2(3H)-ylidene)methyl]-5-methoxy-N,N-dimethyl-1-[2-(4-methylpiperazin-1-yl)ethyl]-1H-indole-2-carboxamide]	< 2.7	25	278	1.5	14.5	–	–
COc1ccc2c(c1)c(C=C1Oc3cc(O)cc(O)c3C1=O)c(C)n2CCCCN1CCN(CCO)CC1 [Example 98, 4,6-dihydroxy-2-[(1-{4-[4-(2-hydroxyethyl)piperazin-1-yl]butyl}-5-methoxy-2-methyl-1H-indol-3-yl)methylene]-1-benzofuran-3(2H)-one]	9.4	10.5	248	1	58.5	–	–
COc1ccc2c(c1)c(C=C1Oc3cc(O)cc(O)c3C1=O)cn2CCCN(C)C [Example 114, 2-({1-[3-(dimethylamino)propyl]-5-methoxy-1H-indol-3-yl}methylene)-4,6-dihydroxy-1-benzofuran-3(2H)-one]	–	221	2420	11.5	2120	40	–
COc1cc(F)c2[nH]c(-c3c(C)nn(C)c3C)c(/C=C3\Oc4ccc(NC(=O)Nc5ccc(C(=O)N(C)CCN(C)C)cc5)cc4C3=O)c2c1 [Compound 710, N-[2-(dimethylamino)ethyl]-4-({[(2Z)-2-{[7-fluoro-5-methoxy-2-(1,3,5-trimethyl-1H-pyrazol-4-yl)-1H-indol-3-yl]methylidene}-3-oxo-2,3-dihydro-1-benzofuran-5-yl]carbamoyl}amino)-N-methylbenzamide]	0.2	0.7	2.35	0.6	< 1	–	–
COc1ccc2c(c1)c(/C=C1\Oc3cc(O)cc(O)c3C1=O)c(C)n2CCN1CCC(O)CC1 [Example 320, (2Z)-4,6-Dihydroxy-2-({1-[2-(4-hydroxypiperidin-1-yl)ethyl]-5-methoxy-2-methyl-1H-indol-3-yl}methylene)-1-benzofuran-3(2H)-one]	3	22	36.5	0.8	12.8	–	–
COc1ccc2[nH]cc(/C=C3\Oc4cc(O)cc(O)c4C3=O)c2c1 [Example 59, (2Z)-4,6-dihydroxy-2-[(5-methoxy-1H-indol-3-yl)methylene]-1-benzofuran-3(2H)-one]	–	173	269	70	265	30.2	–
O=C1/C(=C/c2c[nH]c3ccc(Br)cc23)Oc2cc(O)cc(O)c21 [Example 50, (2Z)-2-[(5-bromo-1H-indol-3-yl)methylene]-4,6-dihydroxy-1-benzofuran-3(2H)-one]	–	358	1620	387	3700	422	–

More lines, main results first:

IC50 (PI3K-alpha; read-out: PI3Kα Avg. IC50) [nM]	IC50 (PI3K-beta) [nM]	IC50 (PI3K-gamma) [nM]	IC50 (PI3K-delta; read-out: PI3Kδ Avg. IC50) [nM]	IC50 (human TOR) [nM]	SMILES	IC50 (PI3K-alpha; PI3Kα Avg. IC50) [nM]	IC50 (PI3K-delta) [nM]
2240	671	5860	1020	> 5000	Cc1c(C=C2Oc3cc(O)cc(O)c3C2=O)c2ccccc2n1CCCCCl [Example 94, 2-{[1-(4-chlorobutyl)-2-methyl-1H-indol-3-yl]methylene}-4,6-dihydroxy-1-benzofuran-3(2H)-one]	–	–
13	75.3	7	9.7	20.5	COc1ccc2c(c1)c(/C=C1\Oc3cc(O)cc(O)c3C1=O)c(C(F)(F)F)n2CCn1cccn1 [Example 337, (2Z)-4,6-Dihydroxy-2-({5-methoxy-1-[2-(1H-pyrazol-1-yl)ethyl]-2-(trifluoromethyl)-1H-indol-3-yl}methylene)-1-benzofuran-3(2H)-one]	–	–
0.33	5	3.42	1.45	12	CCn1c(C)c(/C=C2\Oc3ccc(NC(=O)Nc4ccc(C(=O)N(C)CCN(C)C)cc4)cc3C2=O)c2cc(OC)ccc21 [Compound 639, N-[2-(dimethylamino)ethyl]-4-[({(2Z)-2-[(1-ethyl-5-methoxy-2-methyl-1H-indol-3-yl)methylene]-3-oxo-2,3-dihydro-1-benzofuran-5-yl}carbamoyl)amino]-N-methylbenzamide]	–	–
32.3	96.5	403	38	130	COc1cc2c(C=C3Oc4cc(O)cc(O)c4C3=O)c(C)n(C)c2cc1C [Example 185, 4,6-dihydroxy-2-[(5-methoxy-1,2,6-trimethyl-1H-indol-3-yl)methylene]-1-benzofuran-3(2H)-one]	–	–
< 1.8	1	3	1.5	< 17	COc1ccc2[nH]c(-c3cnn(C)c3)c(/C=C3\Oc4cc(O)cc(O)c4C3=O)c2c1 [Example 330, (2Z)-4,6-Dihydroxy-2-{[5-methoxy-2-(1-methyl-1H-pyrazol-4-yl)-1H-indol-3-yl]methylene}-1-benzofuran-3(2H)-one]	–	–
11	98.5	322	< 1	> 800	COc1ccc2c(c1)c(/C=C1\Oc3cc(O)ccc3C1=O)c(C)n2CCCN1CCCCC1 [Example 357, (2Z)-6-Hydroxy-2-{[5-methoxy-2-methyl-1-(3-piperidin-1-ylpropyl)-1H-indol-3-yl]methylene}-1-benzofuran-3(2H)-one]	–	–
11.5	76.5	60.5	12.5	17.5	COc1ccc2c(c1)c(/C=C1\Oc3cc(O)cc(O)c3C1=O)c(C(=O)N(C)C)n2CCO [Example 348, 3-[(Z)-(4,6-Dihydroxy-3-oxo-1-benzofuran-2(3H)-ylidene)methyl]-1-(2-hydroxyethyl)-5-methoxy-N,N-dimethyl-1H-indole-2-carboxamide]	–	–
12.5	51.6	130	18.5	39	COc1ccc2c(c1)c(/C=C1\Oc3cc(O)cc(O)c3C1=O)c(-c1cnn(C)c1)n2CC(=O)N(C)C [Example 329, 2-{3-[(Z)-(4,6-Dihydroxy-3-oxo-1-benzofuran-2(3H)-ylidene)methyl]-5-methoxy-2-(1-methyl-1H-pyrazol-4-yl)-1H-indol-1-yl}-N,N-dimethylacetamide]	–	–
6.1	7.7	55	3	77	COc1ccc2[nH]c(CN3CCN(C)CC3)c(/C=C3\Oc4cc(O)cc(O)c4C3=O)c2c1 [Example 346, (2Z)-4,6-Dihydroxy-2-({5-methoxy-2-[(4-methylpiperazin-1-yl)methyl]-1H-indol-3-yl}methylene)-1-benzofuran-3(2H)-one]	–	–
5.3	17.5	404	2	117	COc1ccc2c(c1)c(C=C1Oc3cc(O)cc(O)c3C1=O)c(C)n2CCCN(C)C [Example 106, 2-({1-[3-(dimethylamino)propyl]-5-methoxy-2-methyl-1H-indol-3-yl}methylene)-4,6-dihydroxy-1-benzofuran-3(2H)-one]	–	–
8.5	45	75.5	1.9	< 25	COc1ccc2c(c1)c(C=C1Oc3cc(O)cc(O)c3C1=O)c(C)n2CCCN1CCOCC1 [Example 102, 4,6-dihydroxy-2-{[5-methoxy-2-methyl-1-(3-morpholin-4-ylpropyl)-1H-indol-3-yl]methylene}-1-benzofuran-3(2H)-one]	–	–
4.3	18	321	2.8	< 23	COc1ccc2c(c1)c(C=C1Oc3cc(O)cc(O)c3C1=O)c(C)n2CCN1CCN(CCO)CC1 [Example 109, 4,6-dihydroxy-2-[(1-{2-[4-(2-hydroxyethyl)piperazin-1-yl]ethyl}-5-methoxy-2-methyl-1H-indol-3-yl)methylene]-1-benzofuran-3(2H)-one]	–	–
5.7	19	162	2.3	130	COc1ccc2c(c1)c(C=C1Oc3cc(O)cc(O)c3C1=O)c(C)n2CCCN1CCC(N(C)C)C1 (centres unmarked) [Example 104, 2-[(1-{3-[3-(dimethylamino)pyrrolidin-1-yl]propyl}-5-methoxy-2-methyl-1H-indol-3-yl)methylene]-4,6-dihydroxy-1-benzofuran-3(2H)-one]	–	–

— patent US20090311217A1, “3-SUBSTITUTED-1H-INDOLE COMPOUNDS, THEIR USE AS MTOR KINASE AND PI3 KINASE INHIBITORS, AND THEIR SYNTHESES” (priority 2008, published 2009)
